Assay results as given in US7214690B2, “Tricyclic quinolinone and tricyclic quinoline androgen receptor modulator compounds and methods” (Ligand Pharmaceuticals Incorporated, priority 2001, dated 2007).
Where two headings read alike, the source gives them in different places.

How the values were obtained:
human AR = biological target: T1, human AR (Homo sapiens, UniProt P10275); assay: co-transfection assay, hAR in CV-1 cells (MTV-LUC reporter); format: cell-based; details: for AR Agonist CV-1 Cells Efficacy: agonist mode, luciferase production relative to DHT; for AR Agonist CV-1 Cells Efficacy / AR Antagonist CV-1 Cells Efficacy: hAR in CV-1 cells; for AR Antagonist CV-1 Cells Efficacy: antagonist mode, maximal inhibition of DHT-induced luciferase production
T1 construct: expressed in transfected cells; host or cells: CV-1 cells (African green monkey kidney fibroblasts)
T1 sequence (P10275 1-920): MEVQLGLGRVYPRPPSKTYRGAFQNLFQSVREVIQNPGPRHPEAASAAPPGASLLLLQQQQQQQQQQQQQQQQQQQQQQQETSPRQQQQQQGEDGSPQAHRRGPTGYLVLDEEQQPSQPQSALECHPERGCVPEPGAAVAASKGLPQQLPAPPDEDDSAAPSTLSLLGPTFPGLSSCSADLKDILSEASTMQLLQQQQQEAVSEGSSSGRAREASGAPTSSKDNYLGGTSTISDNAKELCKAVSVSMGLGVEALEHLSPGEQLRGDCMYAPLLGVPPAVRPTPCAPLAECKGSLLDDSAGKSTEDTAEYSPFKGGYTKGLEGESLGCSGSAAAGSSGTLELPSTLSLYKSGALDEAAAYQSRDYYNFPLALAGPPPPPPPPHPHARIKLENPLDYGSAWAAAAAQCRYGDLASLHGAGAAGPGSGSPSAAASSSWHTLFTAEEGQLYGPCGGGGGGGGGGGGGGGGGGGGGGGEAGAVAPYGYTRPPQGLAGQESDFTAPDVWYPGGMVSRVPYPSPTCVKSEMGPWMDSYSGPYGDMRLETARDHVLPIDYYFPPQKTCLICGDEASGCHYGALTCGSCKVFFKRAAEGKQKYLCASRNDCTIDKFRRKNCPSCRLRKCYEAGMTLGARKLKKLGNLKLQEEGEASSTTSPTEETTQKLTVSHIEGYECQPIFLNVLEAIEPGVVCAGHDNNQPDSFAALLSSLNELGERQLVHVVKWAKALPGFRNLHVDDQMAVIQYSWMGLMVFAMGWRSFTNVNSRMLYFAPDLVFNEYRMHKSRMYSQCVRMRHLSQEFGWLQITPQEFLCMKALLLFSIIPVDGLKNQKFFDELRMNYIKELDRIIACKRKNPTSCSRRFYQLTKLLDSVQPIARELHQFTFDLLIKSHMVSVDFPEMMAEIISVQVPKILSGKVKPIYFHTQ
Description: The co-transfection assay provides a method for identifying functional agonists and partial agonists that mimic, or antagonists that inhibit, the effect of native hormones and quantifying their activity for responsive IR proteins. In this regard, the co-transfection assay mimics an in vivo system in the laboratory. Importantly, activity in the co-transfection assay correlates very well with known in vivo activity, such that the co-transfection assay functions as a qualitative and quantitative predictor of a tested compounds in vivo pharmacology. , See e.g., T. Berger et al. 41 J. Steroid Biochem. Molec.
(§1) CV-1 cells (African green monkey kidney fibroblasts) were cultured in the presence of Dulbecco's Modified Eagle Medium (DMEM) supplemented with 10% charcoal resin-stripped fetal bovine serum (CH-FBS) then transferred to 96-well microtiter plates one day prior to transfection.
The reporter plasmid, MTV-LUC, contains the cDNA for firefly luciferase (LUC) under control of the mouse mammary tumor virus (MTV) long terminal repeat, a conditional promoter containing an androgen response element. See e.g., Berger et al. supra. In addition, pRS-β-Gal, coding for constitutive expression of E. coli β-galactosidase (β-Gal), was included as an internal control for evaluation of transfection efficiency and compound toxicity.
(§2) Three to four replicates were used for each sample.
(§3) After 40 hours, the cells were washed with PBS, lysed with a Triton X-100-based buffer and assayed for LUC and β-Gal activities using a luminometer or spectrophotometer, respectively. For each replicate, the normalized response (NR) was calculated as: LUC response/β-Gal rate • where β-Gal rate=β-Gal/β-Gal incubation time.

ER = biological target: T2, ER (Homo sapiens, UniProt P03372); assay: co-transfection assay, ER; format: cell-based
T2 construct: expressed in transfected cells; host or cells: background cell substantially devoid of endogenous IRs (CV-1 described for the co-transfection assay)
T2 sequence (P03372 1-595): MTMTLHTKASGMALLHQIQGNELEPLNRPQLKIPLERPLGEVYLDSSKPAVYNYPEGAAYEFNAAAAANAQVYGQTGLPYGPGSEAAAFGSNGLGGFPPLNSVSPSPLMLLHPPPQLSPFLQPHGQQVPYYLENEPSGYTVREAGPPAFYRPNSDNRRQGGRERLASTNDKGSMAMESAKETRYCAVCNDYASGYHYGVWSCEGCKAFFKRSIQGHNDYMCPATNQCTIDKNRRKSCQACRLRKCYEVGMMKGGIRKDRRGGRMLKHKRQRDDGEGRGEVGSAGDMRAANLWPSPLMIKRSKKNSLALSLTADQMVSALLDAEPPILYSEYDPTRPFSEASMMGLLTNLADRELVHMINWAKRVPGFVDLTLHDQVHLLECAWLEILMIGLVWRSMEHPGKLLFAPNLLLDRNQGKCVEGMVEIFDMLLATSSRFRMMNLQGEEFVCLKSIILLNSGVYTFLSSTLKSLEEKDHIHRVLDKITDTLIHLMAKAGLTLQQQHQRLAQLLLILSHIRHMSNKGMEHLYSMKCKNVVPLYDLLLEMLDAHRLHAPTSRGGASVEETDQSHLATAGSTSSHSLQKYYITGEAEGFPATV
Description: as §1, §2, §3

Structure (SMILES) | EC50 (human AR) [nM] | AR Agonist CV-1 Cells Efficacy (human AR) | AR Antagonist CV-1 Cells Efficacy (human AR) | EC50 (ER; agonist mode, read-out: ER Potency Agon) [nM] | IC50 (ER; antagonist mode, read-out: ER Potency Antag) [nM] | EC50 (ER) [nM] | IC50 (ER) [nM]
C[C@@H]1Oc2c(ccc3[nH]c(=O)cc(C(F)(F)F)c23)N(CC(F)(F)F)[C@@H]1C (racemic) [Compound 136, (±)-(2S,3R)-2,3,4,7-Tetrahydro-2,3-dimethyl-4-(2,2,2-trifluoroethyl)-10-(trifluoromethyl)-8H-[1,4]oxazino[2,3-f]quinolin-8-one] | 34 | 61% | 24% | – | – | – | –
CC(C)(O)C(=O)Nc1ccc([N+](=O)[O-])c(C(F)(F)F)c1 [Flut, 2-hydroxyflutamide, reference compound] | – | – | – | > 10000 | > 10000 | – | –
CCN1c2ccc3[nH]c(=O)cc(C(F)(F)F)c3c2OC[C@H]1C(C)C [Compound 122, (3R)-4-Ethyl-2,3,4,7-tetrahydro-3-isopropyl-10-(trifluoromethyl)-8H-[1,4]oxazino[2,3-f]quinolin-8-one] | 270 | 76% | na (not active (i.e. efficacy of <20 and potency of >10,000 nM for the cotransfection assay) | – | – | – | –
CC(=O)S[C@@H]1CC2=CC(=O)CC[C@]2(C)[C@H]2CC[C@@]3(C)[C@@H](CC[C@@]34CCC(=O)O4)[C@H]12 [Spir, spironolactone, reference compound] | – | – | – | – | – | > 10000 | > 10000
C[C@@H]1COc2c(ccc3[nH]c(=O)cc(C(F)(F)F)c23)N1CC(F)(F)F [Compound 104, (3R)-2,3,4,7-Tetrahydro-3-methyl-4-(2,2,2-trifluoroethyl)-10-(trifluoromethyl)-8H-[1,4]oxazino[2,3-f]quinolin-8-one] | 7 | 73% | na (not active (i.e. efficacy of <20 and potency of >10,000 nM for the cotransfection assay) | – | – | – | –
CC[C@@H]1COc2c(ccc3[nH]c(=O)cc(C(F)(F)F)c23)N1 [Compound 107, (3R)-3-Ethyl-2,3,4,7-tetrahydro-10-(trifluoromethyl)-8H-[1,4]oxazino[2,3-f]quinolin-8-one] | 301 | 17% | 56% | – | – | – | –
CC[C@@H]1COc2c(ccc3[nH]c(=O)cc(C(F)(F)F)c23)N1CC [Compound 109, (3R)-3,4-Diethyl-2,3,4,7-tetrahydro-10-(trifluoromethyl)-8H-[1,4]oxazino[2,3-f]quinolin-8-one] | 411 | 29% | na (not active (i.e. efficacy of <20 and potency of >10,000 nM for the cotransfection assay) | – | – | – | –
CN1CC(C)(C)Oc2c1ccc1[nH]c(=O)cc(C(F)(F)F)c21 [Compound 138, 2,3,4,7-Tetrahydro-2,2,4-trimethyl-10-(trifluoromethyl)-8H-[1,4]oxazino[2,3-f]quinolin-8-one] | > 10000 | na (not active (i.e. efficacy of <20 and potency of >10,000 nM for the cotransfection assay) | 90% | – | – | – | –
CCCC1COc2c(ccc3[nH]c(=O)cc(C(F)(F)F)c23)N1C (racemic) [Compound 117, (±)-2,3,4,7-Tetrahydro-4-methyl-3-propyl-10-(trifluoromethyl)-8H-[1,4]oxazino[2,3-f]quinolin-8-one] | > 10000 | na (not active (i.e. efficacy of <20 and potency of >10,000 nM for the cotransfection assay) | 74% | – | – | – | –
C=CCN1c2ccc3[nH]c(=O)cc(C(F)(F)F)c3c2OC[C@H]1C(C)C [Compound 126, (3R)-4-Allyl-2,3,4,7-tetrahydro-3-isopropyl-10-(trifluoromethyl)-8H-[1,4]oxazino[2,3-f]quinolin-8-one] | 35 | – | – | – | – | – | –
C[C@@H]1COc2c(ccc3[nH]c(=O)cc(C(F)(F)F)c23)N1C [Compound 102, (3R)-2,3,4,7-Tetrahydro-3,4-dimethyl-10-(trifluoromethyl)-8H-[1,4]oxazino[2,3-f]quinolin-8-one] | > 10000 | na (not active (i.e. efficacy of <20 and potency of >10,000 nM for the cotransfection assay) | 32% | – | – | – | –
CCCC1COc2c(ccc3[nH]c(=O)cc(C(F)(F)F)c23)N1 (racemic) [Compound 116, (±)-2,3,4,7-Tetrahydro-3-propyl-10-(trifluoromethyl)-8H-[1,4]oxazino[2,3-f]quinolin-8-one] | > 10000 | na (not active (i.e. efficacy of <20 and potency of >10,000 nM for the cotransfection assay) | 79% | – | – | – | –
